Experimental data published in PMC4042160, “In silico, in vitro and cellular analysis with a kinome-wide inhibitor panel correlates cellular LRRK2 dephosphorylation to inhibitor activity on LRRK2” (Frontiers in Molecular Neuroscience, 2014).
Where two headings read alike, the source gives them in different places.

What was measured:
[1] = biological target: T1, full length LRRK2 protein (Homo sapiens, UniProt Q5S007); assay: In vitro LRRKtide kinase assay with full length recombinant LRRK2, dose-response (IC50/pIC50); assay type: biochemical; conditions: for IC50: read-out: IC50 in vitro (lrrktide)
T1 construct: compounds were tested in triplicate with full length LRRK2 protein; made in house
T1 sequence (Q5S007 whole entry): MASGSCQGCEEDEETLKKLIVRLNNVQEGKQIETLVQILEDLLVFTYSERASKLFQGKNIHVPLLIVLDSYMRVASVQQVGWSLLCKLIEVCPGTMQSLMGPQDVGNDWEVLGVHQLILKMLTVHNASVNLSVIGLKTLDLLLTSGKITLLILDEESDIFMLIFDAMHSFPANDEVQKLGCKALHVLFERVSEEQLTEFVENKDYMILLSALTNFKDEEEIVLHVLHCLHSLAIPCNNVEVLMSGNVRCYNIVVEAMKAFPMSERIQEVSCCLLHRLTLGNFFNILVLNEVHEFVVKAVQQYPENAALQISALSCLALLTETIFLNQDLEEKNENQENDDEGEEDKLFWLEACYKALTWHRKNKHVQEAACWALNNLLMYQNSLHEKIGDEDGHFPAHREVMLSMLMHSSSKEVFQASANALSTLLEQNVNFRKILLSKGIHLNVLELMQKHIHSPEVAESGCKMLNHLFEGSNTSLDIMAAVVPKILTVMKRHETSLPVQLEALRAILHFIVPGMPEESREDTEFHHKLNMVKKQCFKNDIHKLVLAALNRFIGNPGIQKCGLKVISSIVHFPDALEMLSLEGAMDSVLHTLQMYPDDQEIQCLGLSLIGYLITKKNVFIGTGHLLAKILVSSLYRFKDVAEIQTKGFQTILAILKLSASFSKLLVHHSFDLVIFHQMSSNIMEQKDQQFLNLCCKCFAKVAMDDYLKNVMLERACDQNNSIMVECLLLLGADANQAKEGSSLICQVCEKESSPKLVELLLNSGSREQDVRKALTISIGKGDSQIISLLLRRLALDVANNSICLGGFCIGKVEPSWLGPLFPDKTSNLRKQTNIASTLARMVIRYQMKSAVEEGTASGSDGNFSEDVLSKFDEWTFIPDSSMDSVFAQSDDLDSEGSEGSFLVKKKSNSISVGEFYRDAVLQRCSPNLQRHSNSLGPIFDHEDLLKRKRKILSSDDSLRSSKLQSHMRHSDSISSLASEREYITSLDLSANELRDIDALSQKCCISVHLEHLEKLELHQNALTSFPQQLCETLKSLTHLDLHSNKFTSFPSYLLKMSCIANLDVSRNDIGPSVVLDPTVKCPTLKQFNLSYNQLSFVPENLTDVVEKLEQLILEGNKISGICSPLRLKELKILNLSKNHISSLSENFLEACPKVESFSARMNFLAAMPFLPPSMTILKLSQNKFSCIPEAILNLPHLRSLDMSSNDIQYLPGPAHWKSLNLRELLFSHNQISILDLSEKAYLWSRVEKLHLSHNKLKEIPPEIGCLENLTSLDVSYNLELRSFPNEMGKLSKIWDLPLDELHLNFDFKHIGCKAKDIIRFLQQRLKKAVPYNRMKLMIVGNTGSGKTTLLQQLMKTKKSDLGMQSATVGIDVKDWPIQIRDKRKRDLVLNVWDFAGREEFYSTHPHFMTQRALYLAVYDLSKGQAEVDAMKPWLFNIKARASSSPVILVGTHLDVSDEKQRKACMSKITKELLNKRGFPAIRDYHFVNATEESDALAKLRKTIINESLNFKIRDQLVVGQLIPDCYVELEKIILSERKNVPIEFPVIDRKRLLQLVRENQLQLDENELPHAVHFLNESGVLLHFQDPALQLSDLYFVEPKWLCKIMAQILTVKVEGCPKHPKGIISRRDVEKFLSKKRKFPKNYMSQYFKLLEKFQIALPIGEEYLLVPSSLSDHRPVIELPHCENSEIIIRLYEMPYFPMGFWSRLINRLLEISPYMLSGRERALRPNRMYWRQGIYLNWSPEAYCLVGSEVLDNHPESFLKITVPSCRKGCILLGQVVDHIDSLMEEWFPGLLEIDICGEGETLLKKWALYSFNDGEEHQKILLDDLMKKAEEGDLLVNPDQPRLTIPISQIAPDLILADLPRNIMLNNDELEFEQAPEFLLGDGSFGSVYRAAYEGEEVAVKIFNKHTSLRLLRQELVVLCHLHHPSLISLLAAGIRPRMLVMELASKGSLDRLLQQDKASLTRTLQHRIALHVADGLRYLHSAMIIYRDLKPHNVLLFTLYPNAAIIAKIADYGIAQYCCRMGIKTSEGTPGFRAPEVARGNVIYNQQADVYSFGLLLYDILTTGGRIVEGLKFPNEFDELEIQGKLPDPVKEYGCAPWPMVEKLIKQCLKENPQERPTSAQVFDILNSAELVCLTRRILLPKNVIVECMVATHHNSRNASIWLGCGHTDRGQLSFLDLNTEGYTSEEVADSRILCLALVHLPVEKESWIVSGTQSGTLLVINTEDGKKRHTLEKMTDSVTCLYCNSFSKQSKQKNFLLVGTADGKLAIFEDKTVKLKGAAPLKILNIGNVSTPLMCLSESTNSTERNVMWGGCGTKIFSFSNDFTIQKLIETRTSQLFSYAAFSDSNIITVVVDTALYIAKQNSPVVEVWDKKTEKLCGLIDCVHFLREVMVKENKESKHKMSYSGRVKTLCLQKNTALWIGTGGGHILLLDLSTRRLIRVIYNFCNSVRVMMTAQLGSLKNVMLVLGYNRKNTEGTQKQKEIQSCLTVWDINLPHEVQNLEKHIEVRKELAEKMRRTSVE

LRRK2 phospho-Ser935 = biological target: T2, LRRK2 phospho-Ser935 (Homo sapiens, UniProt Q5S007); assay: Cellular LRRK2 phosphoserine 935 dephosphorylation spotblot assay in SH-SY5Y cells stably expressing 3xFlag-LRRK2; assay type: cell-based; conditions: for Phosphorylation level relative to solvent (%) (cellular pS935 assay): @ 5 μM for 2 h, SH-SY5Y stably expressing LRRK2, pS935/total LRRK2; for IC50: read-out: IC50 cellular (pS935)
T2 construct: expressed in transfected cells
T2 sequence (Q5S007 whole entry): as above

[2] = biological target: T3, GST-tagged truncated LRRK2 containing residues 970 to 2527 (Homo sapiens, UniProt Q5S007); assay: In vitro LRRKtide peptide-substrate kinase assay, single dose testing (10 μM); assay type: biochemical; conditions: LRRKtide assay @ 10 μM inhibitor; GST-LRRK2 970-2527; 10 μM ATP; mean, N = 3; solvent control = 100%
T3 construct: GST-tagged truncated LRRK2 containing residues 970 to 2527 (Life Technologies); purchased Life Technologies
T3 sequence (Q5S007 970-2527): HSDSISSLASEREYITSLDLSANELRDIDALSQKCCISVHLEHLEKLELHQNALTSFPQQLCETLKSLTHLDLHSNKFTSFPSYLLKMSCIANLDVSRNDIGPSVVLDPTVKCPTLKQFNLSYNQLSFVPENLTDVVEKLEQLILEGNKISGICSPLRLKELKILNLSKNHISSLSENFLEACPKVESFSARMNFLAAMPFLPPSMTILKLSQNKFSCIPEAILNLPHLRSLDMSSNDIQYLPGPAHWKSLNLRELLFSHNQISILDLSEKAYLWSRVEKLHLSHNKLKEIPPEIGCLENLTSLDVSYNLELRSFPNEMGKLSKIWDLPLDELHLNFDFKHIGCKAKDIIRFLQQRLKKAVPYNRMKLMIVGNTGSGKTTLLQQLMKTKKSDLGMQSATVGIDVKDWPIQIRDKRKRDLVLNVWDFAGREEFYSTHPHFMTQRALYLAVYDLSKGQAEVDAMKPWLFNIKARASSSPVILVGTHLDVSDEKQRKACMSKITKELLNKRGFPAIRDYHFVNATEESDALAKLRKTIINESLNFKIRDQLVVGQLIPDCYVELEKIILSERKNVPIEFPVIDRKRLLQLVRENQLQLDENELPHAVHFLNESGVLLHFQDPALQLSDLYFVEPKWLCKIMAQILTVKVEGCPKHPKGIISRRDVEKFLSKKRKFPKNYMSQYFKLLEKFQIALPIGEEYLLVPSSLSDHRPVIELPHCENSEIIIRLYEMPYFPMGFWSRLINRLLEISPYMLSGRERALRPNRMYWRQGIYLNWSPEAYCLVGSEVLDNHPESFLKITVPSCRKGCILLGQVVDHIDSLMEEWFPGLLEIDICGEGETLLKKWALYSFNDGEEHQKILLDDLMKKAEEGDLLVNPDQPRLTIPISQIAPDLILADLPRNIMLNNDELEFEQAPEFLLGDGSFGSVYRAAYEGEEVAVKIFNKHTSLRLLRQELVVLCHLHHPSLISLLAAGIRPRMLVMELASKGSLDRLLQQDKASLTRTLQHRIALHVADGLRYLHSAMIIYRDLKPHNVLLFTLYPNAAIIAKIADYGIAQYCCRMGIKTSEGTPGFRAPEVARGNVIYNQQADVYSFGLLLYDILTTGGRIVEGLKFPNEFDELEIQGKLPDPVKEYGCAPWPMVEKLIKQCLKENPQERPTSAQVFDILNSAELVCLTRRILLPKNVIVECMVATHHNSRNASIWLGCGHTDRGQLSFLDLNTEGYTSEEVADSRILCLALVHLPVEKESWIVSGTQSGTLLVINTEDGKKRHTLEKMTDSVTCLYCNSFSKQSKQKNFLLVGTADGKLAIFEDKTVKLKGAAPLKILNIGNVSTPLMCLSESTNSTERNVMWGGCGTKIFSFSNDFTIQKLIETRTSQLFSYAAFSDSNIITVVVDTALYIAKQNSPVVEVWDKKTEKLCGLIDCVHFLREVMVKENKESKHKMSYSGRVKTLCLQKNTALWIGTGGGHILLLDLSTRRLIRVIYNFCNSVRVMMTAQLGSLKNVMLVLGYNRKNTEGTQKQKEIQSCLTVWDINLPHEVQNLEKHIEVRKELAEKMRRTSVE

[3] = LRRKtide phosphorylation, dose-response
[4] = pS935 level as % of control, 5 μM for 2 h, SH-SY5Y cells with stable expression of LRRK2
[5] = pS935 dephosphorylation, SH-SY5Y cells with stable expression of LRRK2

Row | Compound | pIC50 in vitro (lrrktide) [1, 3] | IC50 [1, 3] [µM] | Cellular pS935 (% @ 5 μM) (LRRK2 phospho-Ser935; [4]) [%] | % LRRKtide phosphorylation relative to solvent [2] [%] | Phosphorylation level relative to solvent (%) (cellular pS935 assay) (LRRK2 phospho-Ser935) | pIC50 cellular (pS935) (LRRK2 phospho-Ser935; [5]) | IC50 (LRRK2 phospho-Ser935; [5]) [µM] | pIC50 in vitro (lrrktide) [1] | IC50 [1] [µM] | Cellular pS935 (% @ 5 μM) (LRRK2 phospho-Ser935) [%] | pIC50 cellular (pS935) (LRRK2 phospho-Ser935) | IC50 (LRRK2 phospho-Ser935) [µM]
1 | CCCNC(=O)Nc1ccc(Oc2ncnc3cc(OC)c(OC)cc23)cc1Cl | <5 | > 10 | 62.48 | – | – | – | – | – | – | – | – | –
2 | COc1cc2ncnc(Nc3cccc(Cl)c3)c2cc1OC [AG 1478] | 5.43 | 3.73 | 75.11 | 5.72 | 75.11 | – | – | – | – | – | – | –
3 | CC(C)[C@H](CO)Nc1nc(Nc2cc(N)cc(Cl)c2)c2ncn(C(C)C)c2n1 [Aminopurvalanol A] | – | 2.03 | 121.05 | 7.36 | 121.05 | – | – | – | – | – | – | –
4 | COc1cc2ncnc(Nc3ccc(NC(=O)c4ccccc4)cc3)c2cc1OC [Aurora kinase inhibitor II] | <5 | > 10 | 69.85 | 22.60 | 69.85 | – | – | – | – | – | – | –
5 | COc1cc(N2CCOCC2)ccc1Nc1ncc(F)c(Nc2ccccc2NS(C)(=O)=O)n1 [CZC25146] | 8.75 | 0.00178 | 8.62 | – | – | 7.36 | 0.0437 | – | – | – | – | –
6 | CCn1cnc2c(Nc3cccc(Cl)c3)nc(N[C@H]3CCCC[C@H]3N)nc21 [Cdk1 inhibitor. CGP74514A] | 5.46 | 3.47 | 83.35 | – | – | – | – | – | – | – | – | –
7 | O=C1Nc2ccccc2/C1=C\c1c(Cl)[nH]c2ccccc12 [Cdk1 inhibitor] | <5 | > 10 | 78.35 | 29.84 | 78.35 | – | – | – | – | – | – | –
8 | Nc1nc(Nc2ccc(S(N)(=O)=O)cc2)nn1C(=S)Nc1c(F)cccc1F [Cdk1/2 inhibitor III] | 9.04 | 0.00091 | 13.15 | 0.73 | 13.15 | 8.93 | 0.00118 | – | – | – | – | –
9 | COc1ccc(CNc2nc(N(CCO)CCO)nc3c2ncn3C(C)C)cc1 [Cdk2 inhibitor III] | <5 | > 10 | 100.49 | 60.51 | 100.49 | – | – | – | – | – | – | –
10 | CC(C)n1cnc2c(Nc3cccc(Cl)c3)nc(NCCO)nc21 [Compound 52] | 5.41 | 3.93 | 76.44 | 7.76 | 76.44 | – | – | – | – | – | – | –
11 | CCOc1cc2ncnc(Nc3cccc(Br)c3)c2cc1OCC [Compound 56] | 5.52 | 3.01 | 86.56 | 4.52 | 86.56 | – | – | – | – | – | – | –
12 | CN(C)c1ccc(/C=C2\C(=O)Nc3ccccc32)cc1 [DMBI] | 5.83 | 1.48 | 54.34 | 19.33 | 54.34 | – | – | – | – | – | – | –
13 | COc1cc2ncnc(Nc3ccc(OCc4ccccc4)cc3)c2cc1OC [EGFR/ErbB-2 inhibitor] | <5 | > 10 | 67.43 | 68.24 | 67.43 | – | – | – | – | – | – | –
14 | CC(=O)O/N=C1/C(=C2/C(=O)Nc3cc(Br)ccc32)Nc2ccccc21 [GSK-3 inhibitor X] | <5 | > 10 | 106.06 | 38.94 | 106.06 | – | – | – | – | – | – | –
15 | COc1cc(OC)c(C=C2C(O)=Nc3ccccc32)c(OC)c1 [IC261] | – | > 10 | 78.81 | 89.62 | 78.81 | – | – | – | – | – | – | –
16 | O=C1Nc2ccccc2/C1=C1/Nc2ccccc2/C1=N\OCC(O)CO (stereo not drawn) [Indirubin derivative E804] | 6.16 | 0.685 | 101.13 | 2.23 | 101.13 | – | – | – | – | – | – | –
17 | O=C1Nc2ccccc2/C1=C1/Nc2ccccc2/C1=N\O [Indirubin-3'-monoxime] | 5.75 | 1.79 | 85.53 | – | – | – | – | – | – | – | – | –
18 | COc1cc2ncnc(Nc3ccc(O)c(Br)c3)c2cc1OC [JAK3 inhibitor II] | – | 1.2 | 63.02 | 1.86 | 63.02 | – | – | – | – | – | – | –
19 | COc1cc(C(=O)N2CCC(N3CCN(C)CC3)CC2)ccc1Nc1ncc2c(n1)N(C)c1ccccc1C(=O)N2C [LRRK2 IN1] | – | – | – | – | – | – | – | 8.45 | 0.00354 | 9.32 | 6.55 | 0.28
20 | Cc1[nH]c(/C=C2\C(=O)Nc3ccc(S(=O)(=O)N(C)c4cccc(Cl)c4)cc32)c(C)c1C(=O)N1CCN(C)CC1 [Met kinase inhibitor] | 7.37 | 0.043 | 52.43 | 2.05 | 52.43 | – | – | – | – | – | – | –
21 | Nc1ccc2ncnc(NCCc3ccc(Oc4ccccc4)cc3)c2c1 [NF-KB activation inhibitor] | <5 | > 10 | 65.67 | 57.28 | 65.67 | – | – | – | – | – | – | –
22 | CCC(=O)Nc1ccc2ncnc(Nc3cccc(Br)c3)c2c1 [PD 174265] | 5.05 | 8.87 | 67.74 | 32.67 | 67.74 | – | – | – | – | – | – | –
23 | COc1cc2ncnc(N3CCN(C(=O)Nc4ccc(Oc5ccccc5)cc4)CC3)c2cc1OC [PDGF receptor tyrosine kinase inhibitor III] | <5 | > 10 | 72.83 | 55.86 | 72.83 | – | – | – | – | – | – | –
24 | O=C1Nc2ccc3ncsc3c2/C1=C/c1cnc[nH]1 [PKR inhibitor] | 6.44 | 0.363 | 29 | 1.18 | 29.00 | 5.88 | 1.31 | – | – | – | – | –
25 | Indirubin-3′-monoxime | – | – | – | 11.18 | 85.53 | – | – | – | – | – | – | –
26 | PDK1/Akt/Flt dual pathway inhibitor | – | – | – | 5.76 | 57.20 | – | – | – | – | – | – | –
27 | PI 3-KbInhibitor II | – | – | – | 93.55 | 66.60 | – | – | – | – | – | – | –
28 | PKR inhibitor. negative control | 6.53 | 0.297 | 72.69 | – | – | – | – | – | – | – | – | –
29 | Syk inhibitor | 6.20 | 0.632 | 57.29 | – | – | – | – | – | – | – | – | –
30 | cFMS receptor tyrosine kinase inhibitor | – | – | – | 110.22 | 60.62 | – | – | – | – | – | – | –
